Among the data in patent US20230126391A1, “ALPHA-METHYL-SUBSTITUTED DIAZABICYCLO[4.3.1] DECANE DERIVATIVES FOR TREATMENT OF PSYCHIATRIC DISORDERS” (priority 2020, published 2023) are Ki values, retold here.

In general, Ki refers to a measure of affinity in units of concentration, obtained from inhibition or displacement. High values mean lower affinity, low ones higher affinity.

Experiment in all cases: Binding affinity of ligands with large RA (E3-ligase CRBN, PEG linker)
For one experiment, the target named is FKBP12 (Homo sapiens, UniProt P62942). The note with it: * = detection limit. From the text: (§1) Further example of a diazabicyclo[4.3.1]decane with a large, bulky substituent in RA. The n corresponds to a varying PEG-linker length of 1-5. All tested ligands with a S-methyl group display increased binding affinity to the tested FKBPs while all R-isomers display decreased binding affinity as shown in the table below. In all cases, the addition of the methyl group in S-configuration increases the affinity to all measured FKBPs substantially.
FKBP12, sequence (P62942 whole entry): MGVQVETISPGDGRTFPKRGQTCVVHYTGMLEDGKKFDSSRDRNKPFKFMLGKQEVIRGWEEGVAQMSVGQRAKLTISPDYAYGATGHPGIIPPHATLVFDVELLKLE

In another experiment the target is FKBP12.6 (Homo sapiens, UniProt P68106). The note with it: * = detection limit.
FKBP12.6, sequence (P68106 whole entry): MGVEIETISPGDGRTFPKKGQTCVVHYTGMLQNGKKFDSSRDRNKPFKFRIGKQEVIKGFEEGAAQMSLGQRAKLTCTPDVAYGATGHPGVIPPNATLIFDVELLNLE
From the text: as §1

For the next experiment, the target named is T1, FKBP51FK1 (Homo sapiens, UniProt Q13451).
T1 construct: FKBP51FK1
T1 sequence (Q13451 42-130 limits assumed): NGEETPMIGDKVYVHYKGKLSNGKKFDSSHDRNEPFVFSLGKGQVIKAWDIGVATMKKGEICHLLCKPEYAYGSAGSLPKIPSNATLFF
From the text: as §1

In another experiment the target is T2, FKBP52FK1 (Homo sapiens, UniProt Q02790).
T2 construct: FKBP52FK1
T2 sequence (Q02790 50-138 limits assumed): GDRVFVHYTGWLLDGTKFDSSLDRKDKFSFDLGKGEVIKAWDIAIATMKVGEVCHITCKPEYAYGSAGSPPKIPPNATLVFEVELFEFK
From the text: as §1

As to `C=C[C@H]1CN(Cc2cn(CCOCC(=O)Nc3cccc4c3C(=O)N(C3CCC(=O)NC3=O)C4=O)nn2)C(=O)[C@@H]2CCC[C@H]1N2S(=O)(=O)c1cc(Cl)cc(Cl)c1` (stereo partly drawn) [MTQ503], the Ki came out at 0.2 ± 0.03 nM on FKBP12, 0.46 ± 0.1 nM at FKBP12.6, 8 ± 1 nM on FKBP51FK1 and 1.9 ± 0.5 nM at FKBP52FK1.
As for `C=C[C@H]1CN([C@@H](C)c2cn(CCOCC(=O)Nc3cccc4c3C(=O)N(C3CCC(=O)NC3=O)C4=O)nn2)C(=O)[C@@H]2CCC[C@H]1N2S(=O)(=O)c1cc(Cl)cc(Cl)c1` (stereo partly drawn) [MTQ513], the Ki on FKBP12 worked out at 0.2 ± 0.02 nM; at FKBP12.6, 0.41 ± 0.2 nM; at FKBP51FK1, 2.3 ± 0.4 nM; at FKBP52FK1, 0.7 ± 0.3 nM.
Consider `C=C[C@H]1CN(Cc2cn(CCOCCOCCOCC(=O)Nc3cccc4c3C(=O)N(C3CCC(=O)NC3=O)C4=O)nn2)C(=O)[C@@H]2CCC[C@H]1N2S(=O)(=O)c1cc(Cl)cc(Cl)c1` (stereo partly drawn) [MTQ505], for which the Ki is 2.4 ± 0.2 nM on FKBP12, 21 ± 2 nM at FKBP12.6, 17 ± 4 nM on FKBP51FK1 and 16 ± 5 nM at FKBP52FK1.
Taken in the same sequence, the figures for `C=C[C@H]1CN(Cc2cn(CCOCCOCCOCCOCC(=O)Nc3cccc4c3C(=O)N(C3CCC(=O)NC3=O)C4=O)nn2)C(=O)[C@@H]2CCC[C@H]1N2S(=O)(=O)c1cc(Cl)cc(Cl)c1` (stereo partly drawn) [MTQ506] were 1.5 ± 0.2 nM, 19 ± 2 nM, 28 ± 5 nM and 30 ± 8 nM.
Regarding `C=C[C@H]1CN(Cc2cn(CCOCCOCCOCCOCCOCC(=O)Nc3cccc4c3C(=O)N(C3CCC(=O)NC3=O)C4=O)nn2)C(=O)[C@@H]2CCC[C@H]1N2S(=O)(=O)c1cc(Cl)cc(Cl)c1` (stereo partly drawn) [MTQ507], the Ki on FKBP12 is 0.7 ± 0.1 nM; at FKBP12.6 it was 10 ± 1.2 nM; on FKBP51FK1, 12 ± 2 nM; at FKBP52FK1, 60 ± 12 nM.
For the compound `C=C[C@H]1CN([C@@H](C)c2cn(CCOCCOCCOCCOCC(=O)Nc3cccc4c3C(=O)N(C3CCC(=O)NC3=O)C4=O)nn2)C(=O)[C@@H]2CCC[C@H]1N2S(=O)(=O)c1cc(Cl)cc(Cl)c1` (stereo partly drawn) [MTQ516], the Ki on FKBP12 was determined as 0.5 ± 0.1 nM; on FKBP12.6, 3.7 ± 0.5 nM; at FKBP51FK1, 4.2 ± 0.8 nM; on FKBP52FK1, 8.4 ± 2.3 nM.
Taken in the same sequence, the figures for `C=C[C@H]1CN([C@@H](C)c2cn(CCOCCOCC(=O)Nc3cccc4c3C(=O)N(C3CCC(=O)NC3=O)C4=O)nn2)C(=O)[C@@H]2CCC[C@H]1N2S(=O)(=O)c1cc(Cl)cc(Cl)c1` (stereo partly drawn) [MTQ514] were 0.4 ± 0.1 nM, 2.4 ± 0.4 nM, 4.4 ± 1.2 nM and 5.7 ± 1.7 nM.
For the compound `C=C[C@H]1CN([C@@H](C)c2cn(CCOCCOCCOCC(=O)Nc3cccc4c3C(=O)N(C3CCC(=O)NC3=O)C4=O)nn2)C(=O)[C@@H]2CCC[C@H]1N2S(=O)(=O)c1cc(Cl)cc(Cl)c1` (stereo partly drawn) [MTQ515], the Ki on FKBP12 was found to be 0.5 ± 0.1 nM; on FKBP12.6, 4.8 ± 0.5 nM; at FKBP51FK1, 3.2 ± 0.9 nM; at FKBP52FK1, 5 ± 1.2 nM.
As for `C=C[C@H]1CN([C@@H](C)c2cn(CCOCCOCCOCCOCCOCC(=O)Nc3cccc4c3C(=O)N(C3CCC(=O)NC3=O)C4=O)nn2)C(=O)[C@@H]2CCC[C@H]1N2S(=O)(=O)c1cc(Cl)cc(Cl)c1` (stereo partly drawn) [MTQ517], the Ki on FKBP12 is 0.4 ± 0.05 nM; on FKBP12.6 it was 1.5 ± 0.3 nM; at FKBP51FK1 it was 2.1 ± 0.4 nM; at FKBP52FK1, 4.9 ± 1.1 nM.
